Test system: IL-17
Assay: Inhibition of IL-17 secretion by compounds
Type: cell-based

Structure (SMILES) | IL-17 Secretion Inhibition [%]
CCCn1c(=O)c2nc(-c3ccc(OCc4nc5cc(C)ccc5[nH]4)cc3)[nH]c2n(CCC)c1=O [Compound P5] | 64.3
CCOc1nc2c(N)ncnc2n1CC1CC1 [Compound P8] | 45.4
CCCn1c(=O)c2nc(-c3ccc(OCc4nc5ccccc5[nH]4)cc3)[nH]c2n(CCC)c1=O [Compound P2] | 54.1

From US11400096B2, “Small molecules for the treatment of autoimmune disorders” (Board of Regents, The University of Texas System, priority 2017, dated 2022)
